According to ChEMBL document CHEMBL5252638, “Novel triphenylphosphonium amphiphilic conjugates of glycerolipid type: synthesis, cytotoxic and antibacterial activity, and targeted cancer cell delivery” (RSC Med Chem, 2023):

What was measured:
M-HeLa = assay: Cytotoxicity against human HelaM cells assessed as number of viable cells measured after 48 hrs by MTT based colorimetric assay; format: functional, cell-based
MCF7 = assay: Cytotoxicity against human MCF7 cells assessed as number of viable cells measured after 48 hrs by MTT based colorimetric assay; format: functional, cell-based; settings: MCF7, 48 h
HuTu80 [1] = assay: Cytotoxicity against human HuTu80 cells assessed as number of viable cells measured after 48 hrs by MTT based colorimetric assay; format: functional, cell-based; settings: HuTu80, 48 h
PANC-1 = assay: Cytotoxicity against human PANC-1 cells assessed as number of viable cells measured after 48 hrs by MTT based colorimetric assay; format: functional, cell-based; settings: PANC-1, 48 h
A549 = assay: Cytotoxicity against human A549 cells assessed as number of viable cells measured after 48 hrs by MTT based colorimetric assay; format: functional, cell-based; settings: A549, 48 h
PC-3 = assay: Cytotoxicity against human PC-3 cells assessed as number of viable cells measured after 48 hrs by MTT based colorimetric assay; format: functional, cell-based; settings: PC-3, 48 h
T98G = assay: Cytotoxicity against human T98G cells assessed as number of viable cells measured after 48 hrs by MTT based colorimetric assay; format: functional, cell-based
HepG2 = assay: Cytotoxicity against human HepG2 cells assessed as number of viable cells measured after 48 hrs by MTT based colorimetric assay; format: functional, cell-based; settings: HepG2, 48 h
SK-OV-3 = assay: Cytotoxicity against human SK-OV-3 cells assessed as number of viable cells measured after 48 hrs by MTT based colorimetric assay; format: functional, cell-based; settings: SK-OV-3, 48 h
DU-145 = assay: Cytotoxicity against human DU-145 cells assessed as number of viable cells measured after 48 hrs by MTT based colorimetric assay; format: functional, cell-based; settings: DU-145, 48 h
[2] = Cytotoxicity against human WI-38 cells assessed as number of viable cells measured after 48 hrs by MTT based colorimetric assay; format: toxicity, cell-based
[3] = Cytotoxicity against human Chang liver cells assessed as number of viable cells measured after 48 hrs by MTT based colorimetric assay; format: toxicity, cell-based
Homo sapiens [4] = species on record: Homo sapiens; assay: Selectivity index, ratio of IC50 for human Chang liver cells to IC50 for human HelaM cells
Homo sapiens [5] = species on record: Homo sapiens; assay: Selectivity index, ratio of IC50 for human Chang liver cells to IC50 for human MCF7 cells
Homo sapiens [6] = species on record: Homo sapiens; assay: Selectivity index, ratio of IC50 for human Chang liver cells to IC50 for human HuTu80 cells
Homo sapiens [7] = species on record: Homo sapiens; assay: Selectivity index, ratio of IC50 for human Chang liver cells to IC50 for human SK-OV-3 cells
Homo sapiens [8] = species on record: Homo sapiens; assay: Selectivity index, ratio of IC50 for human Chang liver cells to IC50 for human DU-145 cells
HuTu80 [9] = assay: Induction of apoptosis in human HuTu80 cells assessed as viable cells at 5 uM incubated for 48 hrs by annexin V FITC/propidium iodide staining based flow cytometry analysis (reference value: 93.71%); format: functional; settings: read-out: Activity
HuTu80 [10] = assay: Induction of apoptosis in human HuTu80 cells assessed as viable cells at 10 uM incubated for 48 hrs by annexin V FITC/propidium iodide staining based flow cytometry analysis (reference value: 93.71%); format: functional; settings: read-out: Activity
HuTu80 [11] = assay: Induction of apoptosis in human HuTu80 cells assessed as early apoptotic cells at 5 uM incubated for 48 hrs by annexin V FITC/propidium iodide staining based flow cytometry analysis (reference value: 1.74%); format: functional
HuTu80 [12] = assay: Induction of apoptosis in human HuTu80 cells assessed as early apoptotic cells at 10 uM incubated for 48 hrs by annexin V FITC/propidium iodide staining based flow cytometry analysis (reference value: 1.74%); format: functional
HuTu80 [13] = assay: Induction of apoptosis in human HuTu80 cells assessed as late apoptotic cells at 5 uM incubated for 48 hrs by annexin V FITC/propidium iodide staining based flow cytometry analysis (reference value: 0.00%); format: functional
HuTu80 [14] = assay: Induction of apoptosis in human HuTu80 cells assessed as late apoptotic cells at 10 uM incubated for 48 hrs by annexin V FITC/propidium iodide staining based flow cytometry analysis (reference value: 0.00%); format: functional
HuTu80 [15] = assay: Induction of apoptosis in human HuTu80 cells assessed as necrotic cells at 5 uM incubated for 48 hrs by annexin V FITC/propidium iodide staining based flow cytometry analysis (reference value: 4.56%); format: functional
HuTu80 [16] = assay: Induction of apoptosis in human HuTu80 cells assessed as necrotic cells at 10 uM incubated for 48 hrs by annexin V FITC/propidium iodide staining based flow cytometry analysis (reference value: 4.56%); format: functional
HuTu80 [17] = assay: Induction of cell cycle arrest in human HuTu80 cells assessed as accumulation of cell at G1/G0 phase at 5 uM measured after 48 hrs by propidium iodide staining based analysis (reference value: 72%); format: functional
HuTu80 [18] = assay: Induction of cell cycle arrest in human HuTu80 cells assessed as accumulation of cell at G1/G0 phase at 10 uM measured after 48 hrs by propidium iodide staining based analysis (reference value: 72%); format: functional
HuTu80 [19] = assay: Induction of cell cycle arrest in human HuTu80 cells assessed as accumulation of cell at G2/M phase at 5 uM measured after 48 hrs by propidium iodide staining based analysis (reference value: 18.7%); format: functional
HuTu80 [20] = assay: Induction of cell cycle arrest in human HuTu80 cells assessed as accumulation of cell at G2/M phase at 10 uM measured after 48 hrs by propidium iodide staining based analysis (reference value: 18.7%); format: functional
HuTu80 [21] = assay: Induction of cell cycle arrest in human HuTu80 cells assessed as accumulation of cell at S phase at 5 uM measured after 48 hrs by propidium iodide staining based analysis (reference value: 8.1%); format: functional
HuTu80 [22] = assay: Induction of cell cycle arrest in human HuTu80 cells assessed as accumulation of cell at S phase at 10 uM measured after 48 hrs by propidium iodide staining based analysis (reference value: 8.1%); format: functional
HuTu80 [23] = assay: Induction of ROS production in human HuTu80 cells assessed as increase in fluorescence intensity at 5 uM measured after 48 hrs by flow cytometry based analysis (reference value: 380); format: functional
HuTu80 [24] = assay: Induction of ROS production in human HuTu80 cells assessed as increase in fluorescence intensity at 10 uM measured after 48 hrs by flow cytometry based analysis (reference value: 380); format: functional
HuTu80 [25] = assay: Induction of mitochondrial membrane potential loss in human HuTu80 cells assessed as J-monomer green fluorescence intensity at 5 uM incubated for 24 hrs by JC10 staining based flow cytometry method (reference value: 5.7%); format: functional
HuTu80 [26] = assay: Induction of mitochondrial membrane potential loss in human HuTu80 cells assessed as J-monomer green fluorescence intensity at 10 uM incubated for 24 hrs by JC10 staining based flow cytometry method (reference value: 5.7%); format: functional
HuTu80 [27] = assay: Induction of mitochondrial membrane potential loss in human HuTu80 cells assessed as J-aggregates red fluorescence intensity at 5 uM incubated for 24 hrs by JC10 staining based flow cytometry method (reference value: 94.4%); format: functional
HuTu80 [28] = assay: Induction of mitochondrial membrane potential loss in human HuTu80 cells assessed as J-aggregates red fluorescence intensity at 10 uM incubated for 24 hrs by JC10 staining based flow cytometry method (reference value: 94.4%); format: functional
Staphylococcus aureus [29] = assay: Antimicrobial activity against Staphylococcus aureus ATCC 6538 P FDA 209P by serial microdilution method; format: functional
Bacillus cereus [30] = assay: Antimicrobial activity against Bacillus cereus ATCC 10702 NCTC 8035 by serial microdilution method; format: functional
Enterococcus faecalis [31] = assay: Antimicrobial activity against Enterococcus faecalis ATCC 29212 by serial microdilution method; format: functional
Escherichia coli [32] = assay: Antimicrobial activity against Escherichia coli ATCC 25922 by serial microdilution method; format: functional
Staphylococcus aureus [33] = assay: Bactericidal against Staphylococcus aureus ATCC 6538 P FDA 209P by serial microdilution method; format: functional
Enterococcus faecalis [34] = assay: Bactericidal activity against Enterococcus faecalis ATCC 29212 by serial microdilution method; format: functional
Escherichia coli [35] = assay: Bactericidal activity against Escherichia coli ATCC 25922 by serial microdilution method; format: functional
[36] = Selectivity index, ratio of IC50 for human WI-38 cells to IC50 for human MCF7 cells; format: toxicity; settings: WI-38 cells and MCF7 cells, read-out: Ratio IC50
Homo sapiens [37] = species on record: Homo sapiens; assay: Selectivity index, ratio of IC50 for human WI-38 cells to IC50 for human HuTu80 cells
[38] = Selectivity index, ratio of IC50 for human WI-38 cells to IC50 for human A549 cells; format: toxicity; settings: WI-38 cells and A549 cells, read-out: Ratio IC50
[39] = Selectivity index, ratio of IC50 for human WI-38 cells to IC50 for human T98G cells; format: toxicity; settings: WI-38 cells and T98G cells, read-out: Ratio IC50
Homo sapiens [40] = species on record: Homo sapiens; assay: Selectivity index, ratio of IC50 for human Chang liver cells to IC50 for human PC-3 cells
Bacillus cereus [41] = assay: Bactericidal activity against Bacillus cereus ATCC 10702 NCTC 8035 by serial microdilution method; format: functional

CCCCC/C=C\C/C=C\CCCCCCCC(=O)OCC(O)COC(=O)CCCC[P+](c1ccccc1)(c1ccccc1)c1ccccc1.[Br-] (stereo not given) showed an IC50 (M-HeLa) of 55.6 µM, an IC50 (MCF7) of 37.7 µM and an IC50 (HuTu80 [1]) of 9.5 µM. The IC50 (PANC-1) was 59 µM, the IC50 (A549) was 62.5 µM and the IC50 (PC-3) was 63.9 µM. For the same compound, the IC50 (T98G) was 98 µM, the IC50 (HepG2) was 76 µM and the IC50 (SK-OV-3) was 39.4 µM. It also gave an IC50 (DU-145) of 49.1 µM, an IC50 at 48 h [2] of 56.6 µM and an IC50 at 48 h [3] of 63 µM. It also gave a Ratio IC50 (Homo sapiens [4]) of 1.1, a Ratio IC50 (Homo sapiens [5]) of 1.7 and a Ratio IC50 (Homo sapiens [6]) of 6.6. For the same compound, the Ratio IC50 (Homo sapiens [7]) was 1.6, the Ratio IC50 (Homo sapiens [8]) was 1.3 and the viability at 5 µM (HuTu80 [9]) was 72.2%. It also gave a viability at 10 µM (HuTu80 [10]) of 56.2%, an Activity (HuTu80 [11]) of 3.99% and an Activity (HuTu80 [12]) of 5.67%. It also gave an Activity (HuTu80 [13]) of 13.1%, an Activity (HuTu80 [14]) of 19.59% and an Activity (HuTu80 [15]) of 10.7%. It also gave an Activity (HuTu80 [16]) of 18.56%, an Activity (HuTu80 [17]) of 81% and an Activity (HuTu80 [18]) of 82%. For the same compound, the Activity (HuTu80 [19]) was 11%, the Activity (HuTu80 [20]) was 9.3% and the Activity (HuTu80 [21]) was 5.7%. The Activity (HuTu80 [22]) was 5.4%, the Flu intensity (HuTu80 [23]) was 1000 and the Flu intensity (HuTu80 [24]) was 1700. For the same compound, the Activity (HuTu80 [25]) was 26.1%, the Activity (HuTu80 [26]) was 38.1% and the Activity (HuTu80 [27]) was 73.9%. For the same compound, the Activity (HuTu80 [28]) was 61.9%, the MIC (Staphylococcus aureus [29]) was 5 µM and the MIC (Bacillus cereus [30]) was 20 µM. For the same compound, the MIC (Enterococcus faecalis [31]) was 20 µM, the MIC (Escherichia coli [32]) was 20 µM and the MBC (Staphylococcus aureus [33]) was 5 µM. The MBC (Enterococcus faecalis [34]) was 80 µM and the MBC (Escherichia coli [35]) was 80 µM.

Work on C=C(C)[C@@H]1CC[C@]2(COCC(O)COC(=O)CCCC[P+](c3ccccc3)(c3ccccc3)c3ccccc3)CC[C@]3(C)[C@H](CC[C@@H]4[C@@]5(C)CC[C@H](O)C(C)(C)[C@@H]5CC[C@]43C)[C@@H]12 (stereo not given in full) yielded an IC50 (M-HeLa) of 11.5 µM, an IC50 (MCF7) of 1.5 µM and an IC50 (HuTu80 [1]) of 0.3 µM. For the same compound, the IC50 (A549) was 3.1 µM, the IC50 (PC-3) was 7.9 µM and the IC50 (T98G) was 4.1 µM. The IC50 at 48 h [2] was 4.7 µM, the selectivity ratio [36] was 3.1 and the Ratio IC50 (Homo sapiens [37]) was 15.7. The selectivity ratio [38] was 1.5 and the selectivity ratio [39] was 1.1.

Work on CCCCC/C=C\C/C=C\CCCCCCCC(=O)OCC(COC(=O)CCCC[P+](c1ccccc1)(c1ccccc1)c1ccccc1)OC(=O)CCCC[P+](c1ccccc1)(c1ccccc1)c1ccccc1 (stereo not given) yielded an IC50 (M-HeLa) of 53.8 µM, an IC50 (MCF7) of 24.7 µM and an IC50 (HuTu80 [1]) of 9 µM. The IC50 (PANC-1) was 46.7 µM, the IC50 (A549) was 70 µM and the IC50 (PC-3) was 40.3 µM. The IC50 (T98G) was 51.7 µM, the IC50 (HepG2) was 64.5 µM and the IC50 (SK-OV-3) was 39.4 µM. For the same compound, the IC50 (DU-145) was 29.4 µM, the IC50 at 48 h [2] was 41.1 µM and the IC50 at 48 h [3] was 45 µM. It also gave a Ratio IC50 (Homo sapiens [5]) of 1.8, a Ratio IC50 (Homo sapiens [6]) of 5 and a Ratio IC50 (Homo sapiens [40]) of 1.1. For the same compound, the Ratio IC50 (Homo sapiens [7]) was 1.1, the Ratio IC50 (Homo sapiens [8]) was 1.5 and the MIC (Staphylococcus aureus [29]) was 3.2 µM. For the same compound, the MIC (Bacillus cereus [30]) was 6.4 µM, the MIC (Enterococcus faecalis [31]) was 12.8 µM and the MIC (Escherichia coli [32]) was 6.4 µM. The MBC (Staphylococcus aureus [33]) was 3.2 µM, the MBC (Bacillus cereus [41]) was 500 µM and the MBC (Enterococcus faecalis [34]) was 51.2 µM. For the same compound, the MBC (Escherichia coli [35]) was 12.8 µM.
